Measurements taken from patent US20260297085A1, “1 H-PYRROLO[2,3-B]PYRIDIN-4-YL]-2-OXOPYRROLIDINE-3-CARBONITRILE DERIVATIVES AS TYROSINE KINASE 2 (TYK2) INHIBITORS FOR THE TREATMENT OF INFLAMMATORY DISEASES” (BIOGEN MA INC., priority 2023, published 2026).
Counter-ions that a name gives are not always drawn.

How the values were obtained:
[1] = biological target: T1, human TYK2 kinase domain (JH1) (Homo sapiens, UniProt P29597); assay: JH1 biochemical assay for TYK2 (ADP-Glo kinase assay, recombinant JH1 catalytic domain, JAK3-974 peptide, 10 μM ATP)
T1 construct: recombinantly generated catalytic kinase (also known as JH1) domain of human JAK1, JAK2, JAK3 and TYK2
T1 sequence (P29597 897-1176 limits assumed): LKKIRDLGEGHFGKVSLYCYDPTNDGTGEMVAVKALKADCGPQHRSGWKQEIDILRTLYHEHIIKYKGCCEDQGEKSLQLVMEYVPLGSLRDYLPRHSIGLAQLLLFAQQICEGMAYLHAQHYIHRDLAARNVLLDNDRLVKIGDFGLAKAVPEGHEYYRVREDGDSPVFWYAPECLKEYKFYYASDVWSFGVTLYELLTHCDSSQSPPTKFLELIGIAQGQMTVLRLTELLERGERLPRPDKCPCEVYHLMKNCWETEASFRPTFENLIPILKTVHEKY
Procedure, shortened: (§1)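 ADP-Glo luminescence with 50 μM peptide and 100 min reactions: JAK1 4 nM with JAK3-342 peptide; JAK2, JAK3 and TYK2 at 0.2, 0.3 and 2 nM with JAK3-974 peptide. Compounds tested from 10 or 1 μM top, 11 points, 3-fold. IC50 from a 4-parameter logistic fit of normalized activity.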

[2] = biological target: T2, human JAK1 kinase domain (JH1) (Homo sapiens, UniProt P23458); assay: JH1 biochemical assay for JAK1 (ADP-Glo kinase assay, recombinant JH1 catalytic domain, JAK3-342 peptide, 35 μM ATP)
T2 construct: recombinantly generated catalytic kinase (also known as JH1) domain of human JAK1, JAK2, JAK3 and TYK2
Procedure, shortened: as §1

[3] = biological target: T3, human JAK2 kinase domain (JH1) (Homo sapiens, UniProt O60674); assay: JH1 biochemical assay for JAK2 (ADP-Glo kinase assay, recombinant JH1 catalytic domain, JAK3-974 peptide, 15 μM ATP)
T3 construct: recombinantly generated catalytic kinase (also known as JH1) domain of human JAK1, JAK2, JAK3 and TYK2
Procedure, shortened: as §1

[4] = biological target: T4, human JAK3 kinase domain (JH1) (Homo sapiens, UniProt P52333); assay: JH1 biochemical assay for JAK3 (ADP-Glo kinase assay, recombinant JH1 catalytic domain, JAK3-974 peptide, 4 μM ATP)
T4 construct: recombinantly generated catalytic kinase (also known as JH1) domain of human JAK1, JAK2, JAK3 and TYK2
Procedure, shortened: as §1

[5] = biological target: Tyk2 kinase activity on STAT4 in NK92 cells (Homo sapiens, UniProt P29597); assay: pSTAT4 cell assay (MSD; NK92 cells, 30 ng/mL IL2 stimulation); assay type: cell-based; conditions: 30 ng/mL IL2, 15 minutes
Procedure, shortened: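 Compound treatment of starved NK92 cells ran 1 hr before a 15-minute, 30 ng/mL IL2 pulse; lysates went to an MSD anti-STAT4 antibody assay, with curves fitted by 4-parameter logistic model.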

[6] = biological target: JAK2 kinase activity on STAT5 in TF1 cells (Homo sapiens, UniProt O60674); assay: pSTAT5 cell assay (MSD; TF1 cells, 30 ng/mL IL-3 stimulation); assay type: cell-based; conditions: 30 ng/mL IL-3, 15 minutes
Protocol: The inhibitory potency of compounds of the disclosure against the JAK2 kinase activity on STAT5 was evaluated using an MSD-platform plate-based assay format. TF1 cells natively expressing STAT5 and JAK2 were serum-starved to reduce background phosphorylation levels, then cells were treated with compounds of disclosure for 1 hour with a 10-point four-fold dilution series starting at 10 μM. Cells were then stimulated with 30 ng/mL IL-3 for 15 minutes. Cells were then lysed and pSTAT5 levels were quantitated using an MSD plate-based assay with anti-STAT5 antibodies. The data were normalized and the percent activity versus log concentration of compound was fitted with a 4-parameter logistic model to generate a curve and an IC50 value.

[7] = biological target: JAK1 kinase activity on STAT3 in TF1 cells (Homo sapiens, UniProt P23458); assay: pSTAT3 cell assay (MSD; TF1 cells, 30 ng/mL IL-6 stimulation); assay type: cell-based; conditions: 30 ng/mL IL-6, 15 minutes
Protocol: The inhibitory potency of compounds of the disclosure against the JAK1 kinase activity on STAT3 was evaluated using an MSD-platform plate-based assay format. TF1 cells natively expressing STAT3 and JAK1 were serum-starved to reduce background phosphorylation levels, then cells were treated with compounds of the disclosure for 1 hour with a 10-point four-fold dilution series starting at 10 μM. Cells were then stimulated with 30 ng/mL interleukin 6 (IL-6) for 15 minutes. Cells were lysed and pSTAT3 levels were quantitated using an MSD plate-based assay with anti-STAT3 antibodies. The data were normalized and the percent activity versus log concentration of compound was fitted with a 4-parameter logistic model to generate IC50 curves.

T4 sequence (P52333 822-1111 limits assumed): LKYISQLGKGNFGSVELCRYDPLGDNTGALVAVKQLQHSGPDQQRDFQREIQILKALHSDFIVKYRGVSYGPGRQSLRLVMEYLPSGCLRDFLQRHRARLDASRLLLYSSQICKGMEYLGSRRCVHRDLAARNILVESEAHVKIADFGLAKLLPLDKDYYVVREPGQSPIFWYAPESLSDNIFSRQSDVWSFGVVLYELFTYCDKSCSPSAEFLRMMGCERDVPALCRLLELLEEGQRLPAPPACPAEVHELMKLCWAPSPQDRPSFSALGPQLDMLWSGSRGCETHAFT
Sequence of JAK1 kinase activity on STAT3 in TF1 cells (P23458 whole entry): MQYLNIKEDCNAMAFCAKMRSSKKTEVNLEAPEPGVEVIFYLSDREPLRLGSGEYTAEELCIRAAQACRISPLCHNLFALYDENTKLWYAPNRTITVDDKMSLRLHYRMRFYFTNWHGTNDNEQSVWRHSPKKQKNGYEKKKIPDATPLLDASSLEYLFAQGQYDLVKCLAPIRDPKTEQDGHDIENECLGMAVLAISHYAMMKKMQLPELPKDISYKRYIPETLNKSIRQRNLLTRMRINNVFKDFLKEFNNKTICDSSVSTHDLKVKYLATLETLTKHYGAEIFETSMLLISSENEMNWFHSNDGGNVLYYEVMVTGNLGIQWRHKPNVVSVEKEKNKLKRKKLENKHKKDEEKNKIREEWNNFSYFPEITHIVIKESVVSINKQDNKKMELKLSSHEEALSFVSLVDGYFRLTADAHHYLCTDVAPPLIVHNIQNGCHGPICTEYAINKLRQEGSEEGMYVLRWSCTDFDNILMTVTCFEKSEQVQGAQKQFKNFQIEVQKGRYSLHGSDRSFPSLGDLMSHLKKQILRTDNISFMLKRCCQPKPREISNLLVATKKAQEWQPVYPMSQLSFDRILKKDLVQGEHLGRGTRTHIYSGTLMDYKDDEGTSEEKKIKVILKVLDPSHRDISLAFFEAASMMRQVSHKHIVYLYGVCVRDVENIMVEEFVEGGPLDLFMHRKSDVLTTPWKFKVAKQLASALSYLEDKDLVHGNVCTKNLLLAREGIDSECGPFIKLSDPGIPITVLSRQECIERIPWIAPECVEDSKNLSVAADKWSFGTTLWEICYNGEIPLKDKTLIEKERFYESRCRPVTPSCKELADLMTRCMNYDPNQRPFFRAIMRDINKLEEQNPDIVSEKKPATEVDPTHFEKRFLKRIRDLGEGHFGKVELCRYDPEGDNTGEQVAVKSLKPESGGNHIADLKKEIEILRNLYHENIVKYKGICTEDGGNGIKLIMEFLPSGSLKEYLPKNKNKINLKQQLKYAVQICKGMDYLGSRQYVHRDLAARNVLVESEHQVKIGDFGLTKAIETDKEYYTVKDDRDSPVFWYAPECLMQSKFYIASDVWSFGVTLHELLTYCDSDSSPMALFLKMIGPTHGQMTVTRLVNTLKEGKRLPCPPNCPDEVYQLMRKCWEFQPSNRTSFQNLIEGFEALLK
Sequence of Tyk2 kinase activity on STAT4 in NK92 cells (P29597 whole entry): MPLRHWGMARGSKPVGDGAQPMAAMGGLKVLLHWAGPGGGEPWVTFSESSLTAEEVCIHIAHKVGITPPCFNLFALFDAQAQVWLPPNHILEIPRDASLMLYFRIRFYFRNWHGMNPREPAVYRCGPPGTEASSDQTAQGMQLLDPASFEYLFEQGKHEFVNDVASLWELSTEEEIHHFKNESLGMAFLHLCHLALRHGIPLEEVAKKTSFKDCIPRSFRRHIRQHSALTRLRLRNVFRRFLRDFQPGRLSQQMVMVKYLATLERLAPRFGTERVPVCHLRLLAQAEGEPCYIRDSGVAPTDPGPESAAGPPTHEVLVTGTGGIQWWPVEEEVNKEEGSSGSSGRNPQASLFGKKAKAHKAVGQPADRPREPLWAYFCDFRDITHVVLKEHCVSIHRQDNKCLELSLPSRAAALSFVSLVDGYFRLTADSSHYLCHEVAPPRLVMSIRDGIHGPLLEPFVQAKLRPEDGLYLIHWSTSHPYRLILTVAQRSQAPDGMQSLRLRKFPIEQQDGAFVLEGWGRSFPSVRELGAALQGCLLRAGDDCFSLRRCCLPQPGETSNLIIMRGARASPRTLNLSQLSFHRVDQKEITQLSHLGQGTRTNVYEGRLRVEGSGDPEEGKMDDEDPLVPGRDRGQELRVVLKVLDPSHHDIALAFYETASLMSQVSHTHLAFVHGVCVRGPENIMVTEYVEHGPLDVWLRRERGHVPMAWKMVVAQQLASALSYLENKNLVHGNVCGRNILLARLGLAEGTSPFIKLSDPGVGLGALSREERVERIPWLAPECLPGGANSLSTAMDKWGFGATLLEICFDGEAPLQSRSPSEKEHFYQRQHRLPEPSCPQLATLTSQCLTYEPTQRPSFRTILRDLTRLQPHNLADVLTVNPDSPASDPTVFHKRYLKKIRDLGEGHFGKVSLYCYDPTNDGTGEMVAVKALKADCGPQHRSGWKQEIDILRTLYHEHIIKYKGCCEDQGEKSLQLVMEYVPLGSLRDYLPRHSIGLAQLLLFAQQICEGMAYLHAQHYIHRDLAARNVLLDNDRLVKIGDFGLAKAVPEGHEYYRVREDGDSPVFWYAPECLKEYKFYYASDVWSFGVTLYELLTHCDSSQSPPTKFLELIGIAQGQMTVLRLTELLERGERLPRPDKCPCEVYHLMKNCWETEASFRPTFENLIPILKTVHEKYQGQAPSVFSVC
T3 sequence (O60674 849-1124 limits assumed): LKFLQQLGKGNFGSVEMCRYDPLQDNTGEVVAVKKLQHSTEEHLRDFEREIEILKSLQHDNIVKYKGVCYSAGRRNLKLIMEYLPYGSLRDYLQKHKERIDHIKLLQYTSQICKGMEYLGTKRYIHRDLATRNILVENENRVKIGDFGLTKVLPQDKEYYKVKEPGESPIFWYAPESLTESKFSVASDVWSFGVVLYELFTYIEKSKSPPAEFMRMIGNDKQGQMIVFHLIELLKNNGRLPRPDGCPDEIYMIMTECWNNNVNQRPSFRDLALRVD
Sequence of JAK2 kinase activity on STAT5 in TF1 cells (O60674 whole entry): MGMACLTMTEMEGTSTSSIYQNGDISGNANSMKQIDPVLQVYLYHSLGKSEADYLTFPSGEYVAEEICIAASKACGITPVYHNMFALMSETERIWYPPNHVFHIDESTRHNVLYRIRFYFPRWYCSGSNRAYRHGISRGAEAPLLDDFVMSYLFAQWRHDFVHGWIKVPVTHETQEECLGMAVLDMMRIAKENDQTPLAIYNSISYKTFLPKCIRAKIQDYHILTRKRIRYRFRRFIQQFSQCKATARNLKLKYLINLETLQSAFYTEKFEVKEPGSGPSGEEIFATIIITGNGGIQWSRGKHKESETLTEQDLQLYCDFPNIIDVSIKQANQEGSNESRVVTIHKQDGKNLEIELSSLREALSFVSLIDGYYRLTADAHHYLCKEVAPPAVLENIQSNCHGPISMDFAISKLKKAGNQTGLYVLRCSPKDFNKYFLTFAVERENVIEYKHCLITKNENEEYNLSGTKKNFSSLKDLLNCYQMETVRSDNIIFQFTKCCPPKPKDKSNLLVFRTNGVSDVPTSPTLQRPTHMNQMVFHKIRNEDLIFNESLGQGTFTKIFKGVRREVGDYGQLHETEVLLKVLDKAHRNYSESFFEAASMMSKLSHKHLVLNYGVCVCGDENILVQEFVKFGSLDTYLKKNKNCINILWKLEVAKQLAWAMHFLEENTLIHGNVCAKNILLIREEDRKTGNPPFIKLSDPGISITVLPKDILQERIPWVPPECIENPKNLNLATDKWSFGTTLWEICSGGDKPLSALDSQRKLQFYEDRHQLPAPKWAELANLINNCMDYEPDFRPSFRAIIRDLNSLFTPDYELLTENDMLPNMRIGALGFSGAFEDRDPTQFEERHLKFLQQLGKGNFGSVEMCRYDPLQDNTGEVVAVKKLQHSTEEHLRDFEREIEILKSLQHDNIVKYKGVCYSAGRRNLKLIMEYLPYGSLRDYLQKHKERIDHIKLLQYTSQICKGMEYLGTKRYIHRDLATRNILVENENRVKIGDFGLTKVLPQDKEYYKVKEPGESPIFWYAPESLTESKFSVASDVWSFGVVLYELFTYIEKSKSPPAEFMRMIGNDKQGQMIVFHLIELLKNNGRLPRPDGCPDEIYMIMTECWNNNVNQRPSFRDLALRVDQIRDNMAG
T2 sequence (P23458 875-1153 limits assumed): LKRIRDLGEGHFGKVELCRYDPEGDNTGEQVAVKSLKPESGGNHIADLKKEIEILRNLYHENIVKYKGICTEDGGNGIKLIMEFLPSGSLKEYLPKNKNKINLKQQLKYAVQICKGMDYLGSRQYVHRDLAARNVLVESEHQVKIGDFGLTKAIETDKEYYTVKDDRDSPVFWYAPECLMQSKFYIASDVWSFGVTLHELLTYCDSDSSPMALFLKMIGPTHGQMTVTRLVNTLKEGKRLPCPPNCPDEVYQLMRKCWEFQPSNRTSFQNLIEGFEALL

Row | SMILES | IC50 ([1]; JH1 kinase domain, ADP-Glo) | IC50 ([2]; JH1 kinase domain, ADP-Glo) | IC50 ([3]; JH1 kinase domain, ADP-Glo) | IC50 ([4]; JH1 kinase domain, ADP-Glo) | IC50 [5] | IC50 [6] | IC50 [7] | IC50 ([1]; TYK2 JH1, ADP-Glo) | IC50 ([2]; JAK1 JH1, ADP-Glo) | IC50 ([3]; JAK2 JH1, ADP-Glo) | IC50 ([4]; JAK3 JH1, ADP-Glo)
1 | C[C@@H]1CN(c2nc(-c3cnn([C@H]4CCOC4)c3)cn3ncc(F)c23)C(=O)[C@]1(C#N)C1CC1 [Example 191, (3R,4S)-3-cyclopropyl-1-(3-fluoro-6-(1-((S)-tetrahydrofuran-3-yl)-1H-pyrazol-4-yl)pyrazolo[1,5-a]pyrazin-4-yl)-4-methyl-2-oxopyrrolidine-3-carbonitrile] | < 5 nM | < 100 nM | < 100 nM | < 100 nM | 50 to 100 nM | 1000 to 5000 nM | 1000 to 5000 nM | – | – | – | –
2 | Cn1cc(-c2cc3c(N4CC[C@@](C#N)(C5CC5)C4=O)ccnc3[nH]2)cn1 [Example 4, (S)-3-cyclopropyl-1-(2-(1-methyl-1H-pyrazol-4-yl)-1H-pyrrolo[2,3-b]pyridin-4-yl)-2-oxopyrrolidine-3-carbonitrile] | < 5 nM | < 100 nM | < 100 nM | < 100 nM | 20 to 50 nM | 100 to 1000 nM | 100 to 1000 nM | – | – | – | –
3 | C[C@@H]1CN(c2ccnn3cc(-c4cnn(C5CCN(C)CC5)c4)cc23)C(=O)[C@]1(C#N)C1CC1 [Example 331, (3R,4S)-3-cyclopropyl-4-methyl-1-(6-(1-(1-methylpiperidin-4-yl)-1H-pyrazol-4-yl)pyrrolo[1,2-b]pyridazin-4-yl)-2-oxopyrrolidine-3-carbonitrile] | – | – | – | – | 50 to 100 nM | 100 to 1000 nM | 1000 to 5000 nM | < 5 nM | 100 to 1000 nM | < 100 nM | < 100 nM
4 | CC(=O)Nc1cc(-c2cn3nccc3c(N3C[C@@H](C)[C@@](C#N)(C4CC4)C3=O)n2)ccn1 [Example 228, N-(4-(4-((3R,4S)-3-cyano-3-cyclopropyl-4-methyl-2-oxopyrrolidin-1-yl)pyrazolo[1,5-a]pyrazin-6-yl)pyridin-2-yl)acetamide] | – | – | – | – | 50 to 100 nM | 1000 to 5000 nM | 100 to 1000 nM | < 5 nM | < 100 nM | 100 to 1000 nM | < 100 nM
5 | C[C@@H]1CN(c2ccnn3cc(-c4cn[nH]c4)cc23)C(=O)[C@]1(C#N)C1CC1 [Example 59, (3R,4S)-1-(6-(1H-pyrazol-4-yl)pyrrolo[1,2-b]pyridazin-4-yl)-3-cyclopropyl-4-methyl-2-oxopyrrolidine-3-carbonitrile trifluoroacetate] | < 5 nM | < 100 nM | 100 to 1000 nM | 100 to 1000 nM | 50 to 100 nM | 5000 to 10000 nM | 1000 to 5000 nM | – | – | – | –
6 | N#C[C@@]1(C2CC2)CCN(c2ccnn3cc(-c4cnn(C(F)F)c4)cc23)C1=O [Example 10, (S)-3-cyclopropyl-1-(6-(1-(difluoromethyl)-1H-pyrazol-4-yl)pyrrolo[1,2-b]pyridazin-4-yl)-2-oxopyrrolidine-3-carbonitrile] | 5 to 20 nM | 100 to 1000 nM | 100 to 1000 nM | 100 to 1000 nM | > 100 nM | > 10000 nM | 1000 to 5000 nM | – | – | – | –
7 | C[C@@H]1CN(c2nc(-c3cc[nH]n3)cn3nccc23)C(=O)[C@]1(C#N)C1CC1 [Example 232, (3R,4S)-1-(6-(1H-pyrazol-3-yl)pyrazolo[1,5-a]pyrazin-4-yl)-3-cyclopropyl-4-methyl-2-oxopyrrolidine-3-carbonitrile trifluoroacetate] | – | – | – | – | > 100 nM | > 10000 nM | 1000 to 5000 nM | 5 to 20 nM | < 100 nM | 100 to 1000 nM | 100 to 1000 nM
8 | C[C@@H]1CN(c2nc(-c3cnn([C@H]4C[C@@](C)(O)C4)c3)cn3ncc(F)c23)C(=O)[C@]1(C#N)C1CC1 [Example 301, (3R,4S)-3-cyclopropyl-1-(3-fluoro-6-(1-((1s,3 S)-3-hydroxy-3-methylcyclobutyl)-1H-pyrazol-4-yl)pyrazolo[1,5-a]pyrazin-4-yl)-4-methyl-2-oxopyrrolidine-3-carbonitrile] | – | – | – | – | 50 to 100 nM | 100 to 1000 nM | 100 to 1000 nM | < 5 nM | < 100 nM | < 100 nM | < 100 nM
